Source: paper PMC12329412, “Study of the mass balance, biotransformation, and safety of [^14C]IBI351 in healthy Chinese subjects” (Journal of Biomedical Research, 2024)
“And” between values parts separate entries of the source, which are not always exact repeats. Equal values may be shown once. “Also recorded” adds a separate entry of the source. Read-outs that look alike come from different tables or passages of the source. Marks after values point to notes of the source that are not given here.

Key:
[1] = Plasma pharmacokinetics of IBI351 parent drug (HPLC-MS/MS) after a single oral dose of [14C]IBI351; assay type: in vivo, human
Protocol: This was a single-center, single-dose, open-trial study involving six healthy Chinese male subjects. They received a single dose of 600 mg/150 μCi [^14C]IBI351 on day 1 after fasting for at least 10 h. Blood, urine, and fecal samples were collected at specified time points or intervals within 15 days (0–336 h) following the administration of [^14C]IBI351.
The endpoint of blood analysis was a plasma radioactivity concentration less than 1/8 of the baseline plasma value. Venous blood samples were collected from the six subjects (01101–01106) at the following time points (in hours): −1 (pre-dosing), 0.5, 1, 2, 4, 8, 12, 24, and at 24-h intervals (post-dosing). Whole blood aliquots were collected for radioactivity measurement, and blood samples were centrifuged (1500 [± 10] g, 4 ℃, 10 min) for metabolite identification. All samples were stored at −10–−30 ℃ until analysis.
Plasma, urine, and fecal samples were analyzed using high-performance liquid chromatography-tandem mass spectrometry (HPLC-MS/MS; ABSciex, Carlsbad, CA, USA) to determine the concentrations of IBI351. Samples containing stable isotope-labeled GF1927 (C32H27D3ClFN6O4, with a molecular weight of 620.10) as an internal standard were subjected to protein precipitation with acetonitrile and separated on a Waters Xbridge C18 column (3.5 μm, 50 mm × 2.1 mm; Waters, Milford, MA, USA) at 40 ℃. The mobile phase consisted of deionized water (with 0.1% formic acid) and acetonitrile (with 0.1% formic acid), delivered by gradient elution at 0.6 mL/min, and the gradient elution program was 30% phase B in 0–0.29 min, 80% phase B in 0.30–1.80 min, 30% phase B in 1.81–3.00 min. The detection was performed on a Triple Quad 6500+ tandem mass spectrometer in the positive ion electrospray ionization mode. Quantification was conducted by multiple reaction monitoring of the transitions m/z 617.3→358.2 for IBI351 and m/z 622.2→363.1 for internal standard, respectively. The calibration range for IBI351 in human plasma was 5–5000 ng/mL.
Statistical analysis of TRA in the whole blood and plasma, concentrations of IBI351, corresponding pharmacokinetic parameters, and urine and fecal excretion data was performed using Microsoft Excel 2010. The pharmacokinetic parameters were calculated using Pkanalix 2021R1 (Lixoft, Antony, France). The drug-time curve was plotted using WinNonlin® (version 8.3, Certara). Data were analyzed using the SAS 9.4 software and presented as mean ± standard deviation.

[2] = Safety analysis: adverse events and laboratory tests; assay type: in vivo, human; conditions: for Urea: reference range 3.1–8.0; for Urea / TBIL / ALT / GGT / AST / Cr: listed as [14C]IBI351; for TBIL: reference range 5.1–19.0; for ALT: reference range 9.0–50.0; for GGT: reference range 10.0–60.0; for AST: reference range 15.0–40.0; for Cr: reference range 57.0–97.0; for Safety and tolerability: vital signs, physical indexes, electrocardiogram
Protocol: Safety was evaluated based on the adverse events that occurred during the trial. Normal/abnormal changes in physical examination, vital signs, laboratory tests, electrocardiogram, and other results were evaluated before and after the trial.

[3] = IBI351 parent drug in plasma, single oral 600 mg/150 μCi, n=6, mean±SD
[4] = D3, individual subjects, rows in order 01101–01106
[5] = D8, individual subjects, rows in order 01101–01106
[6] = follow-up visit, individual subjects, rows in order 01101–01106
[7] = single oral 600 mg/150 μCi, listed as [^14C]IBI351

C=CC(=O)N1CCN2c3c(c(=O)n(-c4c(C)ccnc4C(C)C)c4nc(-c5c(O)cccc5F)c(Cl)cc34)N(C)C(=O)C2C1 (stereo not drawn) [IBI351]
quantifiable time point ([1]; IBI351 parent drug in plasma): 168 h | AUC0–last [1, 3]: 2.65×10^4±5.90×10^3 h·ng Eq./mL | CL/F [1, 3]: 25.6 (± 5.56) L/h and 25.6±5.56 L/h | Cmax [1, 3]: 3.90×10^3±8.02×10^2 ng Eq./mL | Cmax ([1]; IBI351 parent drug in plasma, single oral 600 mg/150 μCi, n=6, mean±SD, listed as IB1351): 3.90 × 10^3 (± 8.02 × 10^2) ng Eq./mL | Cmax ([1]; male, human, oral, 600 mg, IBI351 parent drug in plasma, read-out: mean Cmax): 3900 ng/mL | CL renal ([1]; male, human, plasma, single oral 600 mg/150 μCi, read-out: renal clearance (converted)): 30.3 mL/min | Tmax ([1]; male, human, IBI351 parent drug in plasma, single oral 600 mg/150 μCi, fasted, n=6, median (min, max)): 1 h | half-life ([1]; male, human, IBI351 parent drug in plasma, single oral 600 mg/150 μCi, n=6, mean±SD): 17.4 ± 11.9 h | MRT last ([1]; male, human, IBI351 parent drug in plasma, single oral 600 mg/150 μCi, n=6, mean±SD, read-out: MRT0–last): 8.24 ± 1.1 h | Vd/F ([1]; male, human, IBI351 parent drug in plasma, single oral 600 mg/150 μCi, n=6, mean±SD, read-out: Vz/F): 581 ± 323 L | Urea [2, 4]: 4.3 mmol/L and 4.9 mmol/L and 5.1 mmol/L and 4.5 mmol/L and 4.0 mmol/L and 5.5 mmol/L | TBIL [2, 4]: 6.4 µmol/L and 12.2 µmol/L and 7.7 µmol/L and 10.0 µmol/L and 11.5 µmol/L and 10.4 µmol/L | ALT ([2]; D3, individual subjects, 01101, 01102–01106): 11.4 U/L and 10.3 U/L and 11.0 U/L and 14.4 U/L and 29.0 U/L and 17.0 U/L | GGT [2, 4]: 9.9 U/L and 17.1 U/L and 19.1 U/L and 33.0 U/L and 14.4 U/L and 20.1 U/L | AST [2, 4]: 18.5 U/L and 11.5 U/L and 10.9 U/L and 16.4 U/L and 23.6 U/L and 19.0 U/L | Cr [2, 4]: 73.1 µmol/L and 69.5 µmol/L and 66.4 µmol/L and 69.2 µmol/L and 76.5 µmol/L and 78.7 µmol/L | Urea [2, 5]: 3.8 mmol/L and 5.4 mmol/L and 5.6 mmol/L and 4.2 mmol/L and 4.5 mmol/L and 5.1 mmol/L | TBIL [2, 5]: 8.1 µmol/L and 14.2 µmol/L and 4.5 µmol/L and 8.0 µmol/L and 15.1 µmol/L and 13.5 µmol/L | ALT [2, 5]: 18.3 U/L and 12.1 U/L and 10.5 U/L and 19.8 U/L and 30.9 U/L and 17.9 U/L | GGT [2, 5]: 12.1 U/L and 25.8 U/L and 16.8 U/L and 33.8 U/L and 17.0 U/L and 19.2 U/L | AST [2, 5]: 24.1 U/L and 14.2 U/L and 15.8 U/L and 15.2 U/L and 22.2 U/L and 17.7 U/L | Cr [2, 5]: 69.6 µmol/L and 73.7 µmol/L and 64.2 µmol/L and 72.0 µmol/L and 76.4 µmol/L and 84.3 µmol/L | Severity of TEAEs ([2]; all TEAEs, single oral 600 mg/150 μCi): grade 1 | Urea [2, 6]: 3.5 mmol/L and 3.8 mmol/L and 5.6 mmol/L and 4.7 mmol/L and 4.1 mmol/L and 6.1 mmol/L | TBIL [2, 6]: 8.1 µmol/L and 12.3 µmol/L and 4.5 µmol/L and 7.0 µmol/L and 8.8 µmol/L | ALT [2, 6]: 9.5 U/L and 20.5 U/L and 8.0 U/L and 19.4 U/L and 21.4 U/L and 14.7 U/L | GGT [2, 6]: 13.4 U/L and 25.8 U/L and 22.0 U/L and 32.9 U/L and 16.9 U/L and 15.9 U/L | AST [2, 6]: 15.7 U/L and 14.2 U/L and 16.9 U/L and 11.0 U/L and 19.4 U/L and 17.6 U/L | Cr [2, 6]: 72.8 µmol/L and 73.1 µmol/L and 64.2 µmol/L and 71.4 µmol/L and 66.8 µmol/L and 92.4 µmol/L | Subjects experiencing treatment-emergent adverse events (TEAEs) ([2]; four of six subjects, TEAEs unrelated to [14C]IBI351, single oral 600 mg/150 μCi): 66.7% | TEAE: diarrhea ([2]; share of six subjects, grade 1): 33.3% | TEAE: elevated blood triglycerides ([2]; share of six subjects, grade 1): 33.3% | TEAE: positive fecal occult blood ([2]; share of six subjects, grade 1): 16.7% | TEAEs leading to death ([2]; single oral 600 mg/150 μCi): no TEAEs leading to death | Serious adverse events [2, 7]: no serious adverse events; also recorded: no severe adverse events | TEAEs of CTCAE grade ≥ 3 [2, 7]: no TEAEs with Common Terminology Criteria for Adverse Events (CTCAE) grade ≥ 3; also recorded: no TEAEs of CTCAE grade ≥ 3 | Safety and tolerability ([2]; single oral 600 mg/150 μCi): generally safe and well tolerated | Safety and tolerability [2, 7]: good safety and tolerance
